Data from PubChem BioAssay (NCI).
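Grown in 96-well plates, cells were treated for 48 hours with each compound at five concentrations. Insufficient inhibition: endpoint recorded as highest concentration tested. GI50 marks 50% less growth. TGI marks complete inhibition of growth.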

Legend:
Experiment in all cases: DTP human tumour cell line panel, 48 h
HOP-62 NSCLC = system: HOP-62 NSCLC
HCC-2998 colon = system: HCC-2998 colon
RXF 393 renal = system: RXF 393 renal
EKVX NSCLC = system: EKVX NSCLC
HT29 colon = system: HT29 colon
UACC-257 melanoma = system: UACC-257 melanoma
BT-549 breast = system: BT-549 breast
HS 578T breast = system: HS 578T breast
HCT-15 colon = system: HCT-15 colon
HOP-92 NSCLC = system: HOP-92 NSCLC

Structure (SMILES)	GI50 (HOP-62 NSCLC)	TGI (HOP-62 NSCLC)	GI50 (HCC-2998 colon)	TGI (HCC-2998 colon)	GI50 (RXF 393 renal)	TGI (RXF 393 renal)	GI50 (EKVX NSCLC)	TGI (EKVX NSCLC)	GI50 (HT29 colon)	TGI (HT29 colon)	GI50 (UACC-257 melanoma)	TGI (UACC-257 melanoma)	GI50 (BT-549 breast)	TGI (BT-549 breast)	GI50 (HS 578T breast)	TGI (HS 578T breast)	GI50 (HCT-15 colon)	TGI (HCT-15 colon)	GI50 (HOP-92 NSCLC)	TGI (HOP-92 NSCLC)
COc1ccc(C2C3=C(COC3=O)N(CCO)c3cc4c(cc32)OCCO4)cc1OC (centres undefined)	9580 nM	> 50 µM	1760 nM	8.67 µM	807 nM	2.86 µM	5.98 µM	> 50 µM	1640 nM	> 14.9 µM	2400 nM	> 50 µM	5060 nM	> 47.9 µM	1440 nM	> 50 µM	5390 nM	> 50 µM	837 nM	> 50 µM
Oc1[nH]c2ccc(Cl)cc2c1/C=c1/ccc2c(c1)N=C(c1cc(F)cc(F)c1)N=2	3770 nM	45 µM	7550 nM	> 100 µM	3370 nM	9.88 µM	27.7 µM	> 100 µM					2090 nM	7.59 µM	2900 nM	> 100 µM	3960 nM	> 100 µM	2410 nM	31.1 µM
O=C(CC1(O)C(=O)Nc2c(Cl)ccc(Cl)c21)c1ccc(C2CC2)cc1 (centres undefined)	1280 nM	19.4 µM	1850 nM	18.2 µM	632 nM	2.64 µM	2.15 µM	20.7 µM	586 nM	2.22 µM	2480 nM	24.7 µM	984 nM	11 µM	1830 nM	8.58 µM	185 nM	14.3 µM	769 nM	14.8 µM
CN(C)CCOc1nc2ccccc2c2c1-c1ccc(Cl)cc1C2=O	1210 nM		970 nM	2.49 µM	1070 nM	2.55 µM	2.06 µM	6.85 µM	453 nM	1.63 µM	1250 nM	2.97 µM	2010 nM	4.59 µM	728 nM	3.59 µM	464 nM	1.92 µM	748 nM	12.3 µM
COc1cc2c3c(c1O)C1(C=CC(=O)C=C1)CC3N(C)CC2 (centres undefined)		25.7 µM		24.8 µM		19.4 µM		25.6 µM		23.4 µM		27.7 µM		30.6 µM		> 100 µM		19 µM		24 µM
CCNCCNc1cc(-c2cccc(C(F)(F)F)c2)c(C#N)c2nc3ccccc3n12	2130 nM	3.8 µM	1650 nM	3.13 µM	1490 nM	3.1 µM	1.75 µM	3.45 µM	1240 nM	2.65 µM	1810 nM	3.26 µM	2060 nM	3.75 µM	1840 nM	3.88 µM	708 nM	2.12 µM	1690 nM	3.54 µM
CN1CCN(c2ccc3nc4c(nc3c2C(F)(F)F)C(=O)c2ncccc2C4=O)CC1	1070 nM	2.92 µM	1210 nM	2.63 µM	1460 nM	3.15 µM	1.79 µM	3.87 µM	2320 nM	6.18 µM	873 nM	2.4 µM	1580 nM	3.07 µM	1910 nM	5.38 µM	1190 nM	3.11 µM	2490 nM	5.65 µM
O=[N+]([O-])c1ccc(-c2ccccc2)c([As](=O)(O)O)c1	3110 nM	18 µM	19400 nM	45.5 µM	10700 nM	23.2 µM	15.9 µM	> 100 µM	13500 nM	32.2 µM	21700 nM	> 100 µM	47200 nM	> 100 µM	798 nM	18.4 µM	9300 nM	41.2 µM	13500 nM	95.4 µM
O=C1c2cccc3cc([N+](=O)[O-])cc(c23)C(=O)N1O		> 100 µM		65.2 µM		> 100 µM		> 100 µM		> 100 µM		> 100 µM		> 100 µM		> 100 µM		> 100 µM		> 100 µM
NC(=O)NC(=O)C1CCCCC1C(=O)O (centres undefined)		> 100 µM				> 100 µM		> 100 µM		> 100 µM		> 100 µM		> 100 µM		> 100 µM		> 100 µM		> 100 µM
Nc1cccc2nsnc12		> 100 µM		> 100 µM		> 100 µM		> 100 µM		> 100 µM		> 100 µM		> 100 µM		> 100 µM		> 100 µM		> 100 µM
COC(=O)Nc1nc2ccc(Sc3ccccc3)cc2[nH]1	277 nM	4.23 µM	220 nM	3.03 µM	154 nM	0.51 µM	1.64 µM	53.6 µM	49.4 nM	1.29 µM	3080 nM	> 66.8 µM	1040 nM	18.8 µM	260 nM	11.2 µM	82.5 nM	23 µM	177 nM	7 µM
C=C1CO[C@@H]2C[C@@H]1CC/C(C)=C/CC/C(C)=C/CC[C@@]2(C)O	17100 nM	32.5 µM	18300 nM	36.4 µM	20000 nM	39.3 µM	22.4 µM	45.2 µM	28400 nM	94.1 µM	16800 nM	39.1 µM	24600 nM	51.5 µM	25700 nM	> 83.4 µM	19900 nM	38 µM	15900 nM	44.9 µM
O=C(/C=C/c1cccc(B(O)O)c1)c1cccc(B(O)O)c1	1590 nM	3.26 µM	1800 nM	3.2 µM			6.38 µM	23.1 µM	1680 nM	3.17 µM	1380 nM	3.31 µM	1060 nM	2.37 µM	3890 nM	54.8 µM	1550 nM	4.3 µM	1530 nM	3.59 µM
Cc1cc2nc3c4ccccc4n(CCN(C)C)c3nc2cc1C	1110 nM	7.74 µM	1470 nM	4.13 µM	1560 nM	4.1 µM	2.23 µM	7.32 µM	760 nM	4.26 µM	1940 nM	5.16 µM	2070 nM	6.25 µM	1570 nM	5.76 µM	1770 nM	10.4 µM	1360 nM	8.85 µM
CSc1ccc(C2=NN(C(=O)c3ccc(N)cc3)C(c3ccc(F)cc3)C2)cc1 (centres undefined)	16000 nM	29.8 µM	8790 nM	21.8 µM	17700 nM	34.1 µM	16.6 µM	34 µM	3720 nM	17.5 µM	20400 nM	35.6 µM	12300 nM	28.1 µM	21400 nM	55.8 µM	3280 nM	14.4 µM	2360 nM	17.7 µM
Brc1ccc(Br)nn1	4020 nM	10.1 µM	1980 nM	4.94 µM	1320 nM	2.63 µM	8.17 µM	24.7 µM	3380 nM	> 22.3 µM	1720 nM	3.89 µM	1520 nM	2.96 µM	1750 nM	28.1 µM	1740 nM	3.66 µM	1800 nM	3.6 µM
COc1ccc(NC(=O)O[C@H]2[C@H](O[C@H]3[C@@H](O)COC(O[C@H]4C[C@H]5[C@@H]6CC=C7C[C@@H](O)CC[C@]7(C)[C@H]6CC[C@]5(C)[C@H]4[C@H](C)C(=O)CCC(C)C)[C@@H]3OC(C)=O)OC[C@@H](O)[C@@H]2O)cc1 (some centres undefined)	< 10 nM	1.02 µM	566 nM	32.7 µM	< 10 nM	< 0.01 µM	0.349 µM	11.2 µM	24.2 nM	15.5 µM			< 10 nM	11.3 µM	< 10 nM	0.0116 µM	73.5 nM	1.23 µM	< 10 nM	2.03 µM
Cc1c(N2C(=O)/C(=C\c3ccc(N(C)C)cc3)N=C2c2ccccc2)c(=O)n(-c2ccccc2)n1C	> 100000 nM	> 100 µM	> 100000 nM	> 100 µM	> 100000 nM	> 100 µM	68.4 µM	> 100 µM	49500 nM	> 100 µM	> 100000 nM	> 100 µM	63700 nM	> 100 µM	> 100000 nM	> 100 µM	> 100000 nM	> 100 µM	31800 nM	> 100 µM
COc1cc(C2C(C#N)=C(N)Oc3cc4c(cc32)OCO4)cc2c1OCO2 (centres undefined)	393 nM	> 100 µM	352 nM	6.11 µM	146 nM	0.546 µM	0.594 µM	> 100 µM	324 nM	> 59.7 µM	900 nM	> 100 µM	1800 nM	29.5 µM	328 nM	> 100 µM	446 nM	> 100 µM	407 nM	46.8 µM
COc1ccc(-n2sc(=O)n(Cc3ccc(COC(=O)C(C)c4ccc(CC(C)C)cc4)cc3)c2=O)cc1 (centres undefined)	8840 nM	21.1 µM	7990 nM	17.2 µM	1270 nM	3.79 µM	7.36 µM	14.3 µM	2120 nM	16.1 µM	2020 nM	8.81 µM	2910 nM	9.37 µM	4770 nM	13.8 µM	1100 nM	2.86 µM	1010 nM	3.14 µM
COc1ccc(-c2cncn2-c2cc(OC)c(OC)c(OC)c2)cc1F	< 36.5 nM	> 100 µM	10.1 nM	13.4 µM	< 27.8 nM		0.153 µM	> 100 µM	< 10 nM	> 38.6 µM			< 29.1 nM	> 71.6 µM	332 nM	> 100 µM	< 10 nM	> 100 µM	6000 nM	51.9 µM
CN(NC(=O)CC(=O)NN(C)C(=S)c1ccc(Cl)cc1)C(=S)c1ccc(Cl)cc1	20500 nM	70.8 µM			14700 nM	65.4 µM	18.8 µM	> 100 µM	23600 nM	> 100 µM			12900 nM	53 µM	17700 nM	48.7 µM	7720 nM	> 100 µM		9.05 µM
C[C@@H]1CN2[C@H]3[C@@H]1CC[C@]31CCC(=O)O[C@]1(C)[C@@H]1CC[C@H]3CCC=C3[C@@H]12	> 70000 nM	> 70 µM	> 70000 nM	> 70 µM	> 70000 nM	> 70 µM	> 70 µM	> 70 µM	> 70000 nM	> 70 µM			> 70000 nM	> 70 µM	> 70000 nM	> 70 µM	> 70000 nM	> 70 µM	38400 nM	> 70 µM
Cc1ccc(-c2cc(/C=N/O)on2)cc1	> 100000 nM	> 100 µM			> 100000 nM	> 100 µM	43.3 µM	> 100 µM	48400 nM	> 100 µM	67500 nM	> 100 µM	49500 nM	> 100 µM	> 100000 nM	> 100 µM	64600 nM	> 100 µM	47600 nM	> 100 µM
C=C(C)[C@@H]1CC[C@]2(C)[C@H](C=CC3=C4C[C@@](C)(CO)CC[C@]4(C)CC[C@]32C)[C@@]1(C)CCCN			793 nM	2.14 µM	1620 nM	3.07 µM	1.6 µM	3.1 µM	1630 nM	3.28 µM	1870 nM	3.66 µM	1630 nM	3.07 µM	1800 nM	4.07 µM	1530 nM	2.92 µM	1480 nM	3.21 µM
Cc1cccnc1CNC1CC(NCc2ncccc2C)CC(NCc2ncccc2C)C1 (centres undefined)	1960 nM	4.52 µM			1920 nM	3.9 µM	2.56 µM	8.14 µM	3360 nM	> 39.3 µM	1740 nM	3.58 µM	2950 nM	7.82 µM	3390 nM	16.2 µM	4050 nM	13.3 µM	1100 nM	2.3 µM
